4 molecules from patent US20260294852A1, “COSMETIC COMPOSITION FOR PREVENTING, ALLEVIATING OR AMELIORATING ALOPECIA” (LG CHEM, LTD., priority 2023, published 2026) can be followed below.

The test system of data set [1] is Ki67. Put plainly: Expression of cell proliferation-related factor protein Ki67 (immunofluorescence) in cultured scalp tissue. The format is cell-based, human. The conditions noted are these: 0.1% 3HP, compared to the negative control group. The method, then:
(§1) The ratio of hair follicle telogen and the expression level of hair follicle cell proliferation-related factor proteins depending on whether 3-hydroxypropionic acid was applied or not were evaluated according to the following methods.
The human hair follicles or scalp tissues provided for research purposes (IRB No. 4-2023-1052; Institutional Review Board, Severance Medical Center, Yonsei University College of Medicine) were washed several times with PBS to remove residual impurities, and randomly divided into each group. […]
After the scalp tissue was treated with the test composition for 24 hours, the obtained tissue was prepared into a frozen block, and frozen sectioned at a thickness of 5 μm using a Cryostat microtome (Leica Biosystems, Germany), and the tissue sections were attached onto Silane-coated slides. […] Finally, the tissues were fixed with a fixative containing blue fluorescent DAPI (VECTASHIELD® mounting medium with DAPI; Vector laboratories) that stains the cell nucleus, and then images were taken at 100× magnification using a fluorescence microscope (M2; Zeiss). The percentage of Ki67-expressing cells among the total cells labeled with DAPI was measured from the captured images, and a higher value means a higher number of Ki67-expressing cells.

Data set [2] deals with Human follicle dermal papilla cells. The data set can be described thus: Human follicle dermal papilla cell viability (WST / CCK-8). It is filed as cell-based. The conditions noted are these: for Human follicle dermal papilla cell viability: 24 hours. How it is done:
(§2) Human follicle dermal papilla cells (PromoCell GmbH) were cultured in human follicle dermal papilla cells growth medium (PromoCell GmbH) supplemented with fetal calf serum (FCS), bovine pituitary extract (BPE), basic fibroblast growth factor (bFGF), and insulin at 37° C. and 5% CO2.
The cultured human follicle dermal papilla cells were divided into 5×10^3 cells in a 96-well plate, and when the cells reached 80% or more confluency, they were treated with the 3-hydroxypropionic acid aqueous solution according to Preparation Example 1 at four concentrations ([…]), and then cultured for 24 hours. WST substrate solution (high sensitivity water soluble tetrazolium salt, CCK-8, DOJINDO) was then added to the medium, and cultured at 37° C. for 2 hours.
During the culture, a […] formazan was produced by the reaction between WST and intracellular dehydrogenase, and the absorbance (OD, wavelength 450 nm) was measured.
In Equation 1, the ‘experimental group’ is the group treated with an aqueous solution containing 3HP; the ‘control group’ is the medium containing only the WST substrate; and the ‘negative control group’ is the group in which a medium containing WST substrate was treated with an aqueous solution of 0% 3HP.

For data set [3], the system named is TGF-β1 gene. The data set can be described thus: TGF-β1 gene expression level (real-time PCR, GAPDH-normalised) in human follicle dermal papilla cells. It is filed as cell-based. The conditions noted are these: for mrna remaining at 0.0125 % / mrna remaining at 0.025 % / mrna remaining at 0.05 %: Homo sapiens, 24 h, 24 hours; for mrna remaining at 0.0125 %: 3HP 0.0125 wt. %; for mrna remaining at 0.025 %: 3HP 0.025 wt. %; for mrna remaining at 0.05 %: 3HP 0.05 wt. %. The method, then:
as §2
(§3) The cultured human follicle dermal papilla cells were divided into 5×10^4 cells in a 96-well plate, and when the cells reached 80% or more confluency, they were treated with the 3-hydroxypropionic acid aqueous solution according to Preparation Example 1 at four concentrations (3HP concentrations: 0 wt. %, 0.0125 wt. %, 0.025 wt. %, and 0.05 wt. %), and then cultured for 24 hours. Then, the total RNA in the cells was extracted, and cDNA was synthesized from the extracted RNA. The synthesized cDNA was subjected to real-time polymerase chain reaction. And, the relative quantitative analysis of each gene was performed using GAPDH (one of the house-keeping genes). The relative quantification (RQ) value was calculated according to the following Equation 2.
(§4) In the Equation 2, ‘Treatment’ is the group treated with 3HP; ‘Control’ is the group not treated with 3HP; ‘Target gene’ is Srd5α1 and TGF-β1, and ‘House-keeping gene’ is GAPDH.
On the technique in general: Real-time PCR tracks product formation cycle by cycle.

For data set [4], the system named is human hair follicles. Put plainly: Evaluation of the ratio of hair follicle telogen in DHT-treated anagen hair follicle tissue (ex vivo culture). It is filed as cell-based. The conditions noted are these: for Telogen ratio: 6 days vs day 0. How it is done: as §1
The human hair follicles or scalp tissues provided for research purposes (IRB No. 4-2023-1052; Institutional Review Board, Severance Medical Center, Yonsei University College of Medicine) were washed several times with PBS to remove residual impurities, and randomly divided into each group. The hair follicles and scalp tissues were cultured in Williams' Medium E (Sigma) supplemented with 2 mM L-glutamine (Sigma-Aldrich), 10 μg/ml insulin (Sigma-Aldrich), 100 ng/ml hydrocortisone (Sigma-Aldrich), 0.1% fungizone (Gibco, USA), and 1% antibiotic-antimycotic (Gibco), and 1% penicillin-[…] (Gibco) at 37° C. in 5% CO2.
To induce the telogen in the anagen hair follicle tissue, the test composition was treated with 1 μM dihydrotestosterone (DHT). The medium was replaced every 3 days and cultured for 6 days. The ratio of hair follicle telogen was visually evaluated based on the ratio of hair follicles in which the telogen occurred for 6 days compared to day 0.

Data set [5] deals with 5α-reductase gene (Srd5α1). The data set can be described thus: 5α-reductase gene expression level (real-time PCR, GAPDH-normalised) in human follicle dermal papilla cells. The format is cell-based. The conditions noted are these: for mrna remaining at 0.0125 % / mrna remaining at 0.025 % / mrna remaining at 0.05 %: Homo sapiens, 24 h, 24 hours; for mrna remaining at 0.0125 %: 3HP 0.0125 wt. %; for mrna remaining at 0.025 %: 3HP 0.025 wt. %; for mrna remaining at 0.05 %: 3HP 0.05 wt. %. The method, then:
as §2, §3, §4

[6] abbreviates: under the treatment concentration.

Structures are written as SMILES.

Regarding `O=C(O)CCO` [3HP, 3-hydroxypropionic acid], in data set [1], the “proliferation effect of hair follicle cells (in words)” value is listed as “significantly increased”. In addition, the “Human follicle dermal papilla cell viability” value in data set [2] (3HP 0.025 wt. %, Average, SD 2.561, p-value 0.012 vs negative control (100%)) turned out to be 86.684%; in data set [2] (3HP 0.05 wt. %, Average, SD 0.735, p-value 0.001 vs negative control (100%)), 85.841%; in data set [2] (3HP 0.05 wt. %, single run: Once) it was 86.465%; in data set [2] (3HP 0.1%, Average, SD 2.416, p-value 0.003 vs negative control (100%)), 75.333%. For the same molecule, in data set [2] (under the above treatment concentrations), the “cell viability (in words)” value is “high”. For the same molecule, the mrna remaining at 0.0125 % was 78.5% in data set [3] (single run: Three times), 86.4% in data set [3] (single run: Two times), 92.7% in data set [5] (single run: Three times) and 81.5% in data set [5] (single run: Two times). Moreover, the mrna remaining at 0.025 % worked out at 65.5% in data set [3] (single run: Three times), 72.3% in data set [3] (single run: Two times), 91.4% in data set [5] (single run: Three times) and 88% in data set [5] (single run: Two times). The mrna remaining at 0.05 % stood at 131% in data set [3] (single run: Once); 118% in data set [3] (single run: Three times); 140% in data set [3] (single run: Two times); 132% in data set [5] (single run: Once); 135% in data set [5] (single run: Three times); 113% in data set [5] (single run: Two times). Besides, the “expression of the TGF-β1 gene (in words)” value in data set [3] (setting [6]) is recorded as “significantly inhibited”. Also, in data set [4] (0.1%, 0.5%, and 1.0% 3HP, compared to the DHT control group), the “hair follicle telogen ratio (in words)” value is “significantly decreased”. Also, the Telogen ratio in data set [4] (DHT (1 μM) + 0.5% 3HP, DHT alone 40.000) was 0.000%; in data set [4] (DHT (1 μM) + 1.0% 3HP, DHT alone 40.000), 0.000%. Moreover, in data set [5] (setting [6]), the “expression of the 5α-reductase gene (in words)” value is “significantly inhibited”.

`O=C(O)CCCC[C@@H]1SC[C@@H]2NC(=O)N[C@@H]21` [Biotin, reference compound]: in data set [4] (DHT (1 μM) + 2 ng/ml Biotin, DHT alone 40.000), the Telogen ratio is listed as 10.000%.

Regarding `CC(C)(C)NC(=O)[C@H]1CC[C@H]2[C@@H]3CC[C@H]4NC(=O)C=C[C@]4(C)[C@H]3CC[C@]12C` [Finasteride, reference compound], the Telogen ratio in data set [4] (DHT (1 μM) + 0.5 mM Finasteride, DHT alone 40.000) came to 0.000%.

In the case of `C[C@]12CCC(=O)C[C@@H]1CC[C@@H]1[C@@H]2CC[C@]2(C)[C@@H](O)CC[C@@H]12` [DHT, dihydrotestosterone, reference compound], the Telogen ratio in data set [4] (1 μM DHT alone (telogen inducer), Control 36.667) amounted to 40.000%.
